Source: ChEMBL document CHEMBL1156829 (Proc Natl Acad Sci U S A, 2008)
pEC50: −log10 of the molar value.

Key:
Plasmodium falciparum [1] = experiment: NOVARTIS: Inhibition of Plasmodium falciparum W2 (drug-resistant) proliferation in erythrocyte-based infection assay; format: functional, organism-based; conditions: Plasmodium falciparum, W2; read-out: EC50
Plasmodium falciparum [2] = experiment: NOVARTIS: Inhibition of Plasmodium falciparum 3D7 (drug-susceptible) proliferation in erythrocyte-based infection assay; format: functional, organism-based; conditions: Plasmodium falciparum, 3D7
[3] = NOVARTIS: Cytotoxicity against human hepatocellular carcinoma cell line (Huh7); format: toxicity, cell-based, Huh-7; conditions: Huh7 cells (hepatocellular carcinoma cell line)

Compound	pEC50 (Plasmodium falciparum [1])	pEC50 (Plasmodium falciparum [2])	CC50 [3] [µM]
COc1ccc2[nH]c3ccccc3c(=O)c2c1	5.50	5.36	> 100
CC(C)c1ccc(NC(=O)c2ccc(NCCCN(C)Cc3ccccc3)c([N+](=O)[O-])c2)cc1	5.49	5.60	> 100
CC(C)CN1CCN(c2nc(C#N)c3c(c2C(=S)NC2CCCCC2)CC(C)(C)OC3)CC1	6.50	6.43	> 10
C[n+]1ccc(/C=C/c2ccc(Br)cc2)cc1	6.50	6.34	> 10
Cc1cccc(-n2c(CNC(=O)c3ccc(S(=O)(=O)N4CCCCC4)cc3)nnc2SCC(=O)Nc2nccs2)c1	5.66	5.38	67.1
C[n+]1ccccc1/C=C/c1ccc(Br)cc1	6.49	6.44	> 10
c1ccc2cc3c(NCCN4CCOCC4)ccnc3cc2c1	6.50	6.51	> 10
O=C(NNC(=S)NCc1ccco1)C(F)(F)F	5.50	< 4.90	> 100
OC1(C(F)(F)F)CC(c2ccccc2)=NN1c1nncc(-c2ccccc2)n1 (configuration not stated)	6.50	6.63	> 10
Cc1ccc(-c2cc(C(F)(F)F)n3nc(C(=O)Nc4cccc(Cl)c4Cl)cc3n2)cc1	< 6.49	< 5.90	> 10
COc1ccc(-c2csc(Nc3ccc(O)cc3)n2)cc1OC	5.49	5.53	> 100
COCCN1C(=O)c2[nH]nc(-c3ccccc3O)c2C1c1ccc(SC)cc1 (configuration not stated)	5.56	5.13	> 87.7
CCOc1cc(C=NN=C(N)N)ccc1OCc1ccccc1	6.49	6.63	10.1
O=S(=O)(NCCCCNc1ccnc2cc(Cl)ccc12)c1cc(Cl)ccc1Cl	6.47	6.41	> 10.7
CCCCC(=O)N(C/C=C/c1ccccc1OC)CCN1CCN(C(=O)NC23CC4CC(CC(C4)C2)C3)CC1	6.50	5.84	> 10
O=C(NCc1cccnc1)[C@@H]1C[C@H](NC2CCN(CCc3ccccc3)CC2)CN1Cc1ccc(Cl)cc1	6.23	7.05	18.5
CCCCN1Cc2ccc(C(=O)NC(C)C)cc2N=C1c1ccc(F)cc1	6.49	6.14	> 10
CCN(CC)c1ccc(NCc2ccc3c(c2)OCO3)cc1	6.09	6.22	24.6
c1cc2cc(CN3CCc4nc(N5CCCCC5)sc4C3)ccc2[nH]1	6.49	6.39	> 10
Cc1cccc(CC(=O)N2CCC[C@@H]3CN(C(=O)CCc4cccnc4)CC[C@@H]32)c1	6.50	< 5.90	> 10
CN(C)c1oc(-c2ccc(Cl)cc2Cl)nc1[P+](c1ccccc1)(c1ccccc1)c1ccccc1	6.44	6.64	11.6
CCCCC(CC)C(=O)N(CCCC(C)Nc1cc(OC)cc2cccnc12)Cc1ccc(OC)c(OC)c1 (configuration not stated)	6.48	6.35	> 10
COc1ccc(NC(=O)c2cnn(-c3ccccc3)c2NC(=O)c2ccco2)cc1	5.49	5.10	> 100
CC(C)(CCl)C(=O)NCCCCNc1ccnc2cc(Cl)ccc12	6.44	6.41	> 11.3
CCCCN1C(=O)NC(c2ccc(NC(=O)c3cccs3)cc2)C(C(=O)OC(C)C)=C1C (configuration not stated)	5.50	5.06	> 100

Compound	pEC50 (Plasmodium falciparum [1])	pEC50 (Plasmodium falciparum [2])	CC50 [3] [µM]
COc1ccccc1N1CCN(C(=O)Nc2ccc3ccccc3c2)CC1	6.50	< 5.89	> 10
CCCOc1ccc2c(c1)C(=NN=C(N)N)c1cc(OCCC)ccc1-2	6.49	6.57	> 10
C=CC1(C)CC23CC(C(OC(=O)c4ccccc4)c4ccnc5ccccc45)N2CCC13 (configuration not stated)	6.03	6.76	29.2
Cc1cc(Nc2cccc(F)c2)nc(NCc2ccccc2)n1	6.18	7.14	20.8
CCCCCN(C(=O)c1cccc(OC)c1)C(CC)c1nc2ccccc2c(=O)n1-c1ccccc1OC (configuration not stated)	6.50	6.21	> 10
COC(=O)c1ccc(C=NNc2cc(C)nc3ccc(OC)cc23)cc1	6.27	6.69	16.5
Oc1ccc2ccccc2c1CNc1nc2ccccc2[nH]1	6.35	6.19	14.3
CCOC(=O)c1ccc(-c2c(-c3cc(CC)c(OC)cc3O)noc2C)o1	6.36	6.03	13.8
COc1ccc(Nc2nc(N3CCCC3)c3ccccc3n2)cc1	6.48	6.55	10.2
COc1cc(NC(C)CCCN(Cc2ccc(OC)c(OC)c2)C(=O)Nc2cccc(Cl)c2Cl)c2ncccc2c1 (configuration not stated)	6.69	6.16	6.29
CSC1=C(C#N)C(c2ccc(O)cc2)CC(=O)N1 (configuration not stated)	5.48	< 5.02	> 100
Cc1ccc(Cn2c(N3CCC(C(=O)NCc4ccc(F)cc4)CC3)nc3ccccc32)cc1	5.50	< 5.12	> 100
Cc1c(Cc2ccccc2)sc(N=Cc2ccc(Br)s2)c1C(N)=O	6.50	6.35	> 10
O=C(NC1CCN(CC(O)CN(Cc2ccccc2)S(=O)(=O)c2ccccc2)C1)c1ccco1 (configuration not stated)	6.50	5.93	> 10
O=C(OC(C(=O)NCc1ccco1)c1ccc(F)cc1)c1ccco1 (configuration not stated)	< 6.49	< 5.90	> 10
Cc1cc(C)cc(NC(=S)NNc2ccnc3cc(Cl)ccc23)c1	5.66	5.91	67.7
CC(=O)O[C@@H]1C(=O)[C@@]2(C)[C@H]([C@H](OC(=O)c3ccccc3)[C@@]3(O)C[C@H](OC(=O)[C@H](O)[C@@H](NC(=O)c4ccccc4)c4ccccc4)C(C)=C1C3(C)C)[C@]1(OC(C)=O)CO[C@@H]1C[C@@H]2O	7.41	7.01	1.21
Cc1ccc(N2C(=O)c3sc4nnc(C)c(=O)n4c3C2=O)cc1	6.50	< 6.23	> 10
CC[C@@H](C(=O)[C@@H](C)C(O)[C@H](C)CCc1ccc(C)c(O)c1C(=O)O)C1O[C@](CC)(C2CC[C@](O)(CC)[C@H](C)O2)C[C@@H]1C (some centres not stated)	6.50	6.27	> 10
COc1ccc(OC)c(-c2ccc(O)c(CNCCCN(C)C)c2)c1	6.17	5.90	21.4
CCCCCn1c(SCc2ccc(C)cc2)nc2cc(C(=O)NCc3ccco3)ccc2c1=O	5.50	< 4.90	> 100
Cn1c(NN=Cc2ccccc2)cc(=O)n(C)c1=O	6.49	< 5.90	> 10
COc1ccc(NC(=O)c2cc3cc(C4(O)CCN(Cc5cc6ccccc6[nH]5)CC4)ccc3o2)cc1	6.19	6.57	20.5
COc1cc(NC(=O)Cn2ccc3ccc([N+](=O)[O-])cc32)cc(OC)c1OC	6.50	6.36	> 10
